“Also recorded” adds a separate entry of the source. Where two headings read alike, the source gives them in different places.
How the values were obtained:
Assay type in all cases: cell-based
[1] = system: androgen receptor (AR) expression; assay: Western blot analysis of AR protein expression in LNCaP cells
Experimental: RT-PCR and Immunoblotting. LNCaP cells were cultured in T25 flasks at an initial density of 1×10^6 cells/flask. After exposure to various compounds at the indicated conditions, cells were subject to total RNA isolation by using an RNeasy mini-kit (QIAGEN, Valencia, Calif.). RNA concentrations were determined by measuring absorption at 260 nm in a spectrophotometer. Aliquots of 6 μg of total RNA from each sample were reverse-transcribed to cDNA using an Omniscript RT Kit (QIAGEN) according to the manufacturer's instructions, using suitable primers.
For immunoblotting, protein extracts were prepared by M-PER Mammalian Protein Extraction Reagent (Pierce, Rockford, Ill.) with freshly added 1% phosphatase and protease inhibitor cocktails (Calbiochem) followed by centrifugation at 13,000×g for 10 min. Supernatant was collected and protein concentration was determined by protein assay reagent (Bio-Rad, CA). Protein extracts were then suspended in 2×SDS sample buffer, and subject to 10% SDS-polyacrylamide gels. After electrophoresis, proteins were transferred to nitrocellulose membranes using a semidry transfer cell. The transblotted membrane was washed twice with Tris-buffered saline containing 0.1% Tween 20 (TBST). After blocking with TBST containing 5% nonfat milk for 1 h, the membrane was incubated with mouse monoclonal anti-AR (Santa Cruz) or anti-β-actin (MP Biomedicals) antibodies (diluted 1:1000) in 1% TBST nonfat milk at 4° C. overnight. After incubation with the primary antibody, the membrane was washed three times with TBST for a total of 30 min, followed by incubation with horseradish peroxidase conjugated goat anti-mouse IgG (diluted 1:2500) for 1 h at room temperature. After three thorough washes with TBST for a total of 30 min, the immunoblots were visualized by enhanced chemiluminescence.

AR promoter = assay: AR promoter-luciferase reporter assay in transiently transfected LNCaP cells; settings: compounds at 10 μM, 48 h, ciglitazone and Δ2CG at 20 μM
Text: Transfection and Luciferase assay. The 3.6-kilobase AR promoter-linked reporter plasmid p-3600ARCAT was kindly provided by Dr. Chawnshang Chang (University of Rochester Medical Center, Rochester, N.Y.). The AR promoter gene (−3600 to +550) encompassing the transcription start site was isolated by using PCR to generate hAR-luc with suitable primers. The fragment was subcloned into the pGL3 luciferase reporter vector (Promega, Madison, Wis.) at KpnI and BglII in the multiple cloning site. The PPRE-x3-TK-Luc reporter vector contains three copies of the PPAR-response element (PPRE) upstream of the thymidine kinase promoter-luciferase fusion gene and was kindly provided by Dr. Bruce Spiegelman (Harvard University, Cambridge, Mass.). The pCMVSp1 plasmid was purchased from Origene Technologies, Inc. (Rockville, Md.). LNCaP or PC3 cells were transfected with 5 μg of individual plasmids in an Amaxa Nucleofector using a cell line-specific nucleofector kit according to the manufacturer's protocol (Amaxa Biosystems, Cologne, Germany), and then seeded in 6-well plates at 5×10^5 cells per well for 48 h. The transfection efficiency was determined to be 70-80% by transfecting cells with 2 μg of pmaxGFP plasmid, followed by fluorescence microscopy to measure GFP expression. For each transfection, herpes simplex virus thymidine kinase promoter-driven Renilla reniformis luciferase was used as an internal control for normalization.
For the reporter gene assay, after transfection, cells were cultured in 24-well plates in 10% FBS-supplemented RPMI 1640 medium for 48 h, subject to different treatments for the indicated times, collected, and lysed with passive lysis buffer (Promega). Fifty-μl aliquots of the lysates were added to 96-well plates, and luciferase activity was monitored after adding 100 μl of luciferase substrate (Promega) each well by using a MicroLumatPlus LB96V luminometer (Berthold Technologies, Oak Ridge, Tenn.) with the WinGlow software package. All transfection experiments were carried out in six replicate.

[2] = system: LNCaP androgen-responsive prostate cancer cells; assay: MTT cell viability assay, LNCaP cells; settings: for IC50: Homo sapiens, 5% FBS, read-out: IC50 for suppressing cell viability
Experimental: Cell Counting and Cell Viability Assay. LNCaP or PC-3 cells were placed in six-well plates (2.5×10^5 cells/well) in 10% FBS-supplemented RPMI 1640 for 24 h, and treated with various concentrations of compound 12 for additional 24, 48 and 72 h. Cells were then trypsinized and counted by using a Coulter counter (Model Z1 D/T, Beckman Coulter, Fullerton, Calif.). Cell viability was assessed by using the 3-(4,5-dimethylthiazol-2-yl)-2,5-diphenyl-2H-tetrazolium bromide (MTT) assay in six replicates in 96-well plates. LNCaP or PC-3 cells were seeded at 6000 cells per well in 10% FBS-supplemented RPMI 1640 for 24 h, followed by treatments with various compounds in 5% FBS-supplemented RPMI 1640 at the indicated concentrations. Controls received DMSO at a concentration equal to that in drug-treated cells. After the end of incubation, MTT (0.5 mg/ml) in 10% FBS-supplemented RPMI 1640 was added to each well, and cells were incubated at 37° C. for 2 hours. Medium was removed and the reduced MTT dye was solubilized in DMSO (200 μl/well). Absorbance was determined at 570 nm by a 96-well plate reader.

LNCaP cells = assay: Flow cytometric cell cycle analysis in LNCaP cells; settings: 72 h
Experimental: Cell Cycle Analysis. LNCaP cells were seeded in 6-well plates ([…]) and treated with different concentrations of compound 12 for 72 h. After extensive washing with PBS, cells were trypsinized followed by fixation in ice-cold 80% ethanol at 4° C. overnight. Cells were then centrifuged for 5 min at 1500×g at room temperature, and stained with propidium iodide (50 μg/ml) and RNase A (100 units/ml) in PBS. Cell cycle phase distributions were determined on a FACScort flow cytometer and analyzed by the ModFitLT V3.0 program.

## CC1(CN2C(=O)S/C(=C\c3ccc(O)c(C(F)(F)F)c3)C2=O)CCCCC1 [Compound 12, 5-(4-Hydroxy-3-trifluoromethyl-benzylidene)-3-(1-methyl-cyclohexylmethyl)-thiazolidine-2,4-dione]
[1]; 5 μM, washout then drug-free medium (FIG. 6C)
  AR expression level after compound washed out of the medium: rapidly restored
[1]; 10% FBS, 72 h, Western blot
  suppression of AR protein expression (in words): completely inhibited AR expression in LNCaP cells at low μM concentrations; also recorded: an-order-of-magnitude higher potency than ciglitazone
[1]; 72-h exposure, Western blot (FIG. 4C), read-out: IC50 for suppressing AR expression
  IC50: ~2000 nM
AR promoter
  suppression of AR promoter-luciferase activity / AR transcription (in words): optimal agents
[2]; 48 h
  inhibition of LNCaP cell viability (in words): optimal agents
  IC50: 8000 nM
[2]; 72 h
  IC50: 3000 nM
LNCaP cells
  cell cycle distribution: dose-dependent increase in the sub-G1 population, accompanied by decreases in the G2/M phase
